Source: BindingDB's records for PubMed 35119267 (University of Toronto Mississauga, 2022)

Biological target: Histone deacetylase 3 (Homo sapiens, UniProt O15379)
Assay: Inhibition of full length human recombinant HDAC3 expressed in Sf9 baculovirus system using FAM-labeled acetylated peptide as substrate by measuring fluorescence intensity by EMSA method

Histone deacetylase 3, sequence (O15379 whole entry): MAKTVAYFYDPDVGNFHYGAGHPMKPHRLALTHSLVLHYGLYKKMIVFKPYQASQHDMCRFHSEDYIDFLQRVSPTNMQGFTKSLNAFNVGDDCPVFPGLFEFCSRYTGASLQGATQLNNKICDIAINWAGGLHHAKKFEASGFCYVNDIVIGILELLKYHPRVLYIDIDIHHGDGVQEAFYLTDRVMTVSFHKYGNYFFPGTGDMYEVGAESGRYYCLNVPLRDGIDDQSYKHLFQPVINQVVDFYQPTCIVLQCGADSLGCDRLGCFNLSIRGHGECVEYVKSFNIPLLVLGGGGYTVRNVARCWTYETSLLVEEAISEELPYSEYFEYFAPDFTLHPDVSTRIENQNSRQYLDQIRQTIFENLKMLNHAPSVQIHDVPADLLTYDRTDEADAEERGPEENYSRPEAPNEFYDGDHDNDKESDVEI

`O=C(NO)c1ccc(CN(C2CC2)S(=O)(=O)c2cc(F)c(F)c(F)c2F)cc1` gave an IC50 greater than 1000 nM.
